Results taken from ChEMBL document CHEMBL5442219.

Tests used:
Details in all cases: Compound concentration 10 µM
[1] = target: Muscarinic acetylcholine receptor M3 (Homo sapiens) (UniProt P20309)
[2] = target: Delta-type opioid receptor (Homo sapiens) (UniProt P41143)
[3] = target: D(1A) dopamine receptor (Homo sapiens) (UniProt P21728)
[4] = target: 5-hydroxytryptamine receptor 1E (Homo sapiens) (UniProt P28566)
[5] = target: 5-hydroxytryptamine receptor 6 (Homo sapiens) (UniProt P50406)
[6] = target: Histamine H4 receptor (Homo sapiens) (UniProt Q9H3N8)
Sequence of Histamine H4 receptor (Homo sapiens) (Q9H3N8 whole entry): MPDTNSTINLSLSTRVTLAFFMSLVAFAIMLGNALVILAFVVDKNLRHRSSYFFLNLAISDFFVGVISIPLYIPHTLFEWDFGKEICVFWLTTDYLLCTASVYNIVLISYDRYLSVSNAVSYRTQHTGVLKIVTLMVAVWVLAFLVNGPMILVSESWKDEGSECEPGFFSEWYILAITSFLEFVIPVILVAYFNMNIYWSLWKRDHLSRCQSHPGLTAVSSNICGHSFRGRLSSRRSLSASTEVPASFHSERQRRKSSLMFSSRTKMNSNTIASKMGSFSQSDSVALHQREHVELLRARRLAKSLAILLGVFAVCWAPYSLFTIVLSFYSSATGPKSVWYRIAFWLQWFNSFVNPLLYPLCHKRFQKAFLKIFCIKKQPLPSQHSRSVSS

[7] = target: 5-hydroxytryptamine receptor 1D (Homo sapiens) (UniProt P28221)
Sequence of 5-hydroxytryptamine receptor 1D (Homo sapiens) (P28221 whole entry): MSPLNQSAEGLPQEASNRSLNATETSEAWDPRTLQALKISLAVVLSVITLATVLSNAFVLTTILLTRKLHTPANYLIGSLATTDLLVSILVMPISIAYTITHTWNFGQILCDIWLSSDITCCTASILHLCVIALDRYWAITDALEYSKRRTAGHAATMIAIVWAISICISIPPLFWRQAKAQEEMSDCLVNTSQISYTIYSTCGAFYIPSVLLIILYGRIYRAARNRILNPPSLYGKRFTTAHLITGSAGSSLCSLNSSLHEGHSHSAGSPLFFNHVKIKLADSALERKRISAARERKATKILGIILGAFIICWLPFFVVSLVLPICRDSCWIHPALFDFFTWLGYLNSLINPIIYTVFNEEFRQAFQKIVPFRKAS

[8] = target: D(2) dopamine receptor (Homo sapiens) (UniProt P14416)
Sequence of D(2) dopamine receptor (Homo sapiens) (P14416 whole entry): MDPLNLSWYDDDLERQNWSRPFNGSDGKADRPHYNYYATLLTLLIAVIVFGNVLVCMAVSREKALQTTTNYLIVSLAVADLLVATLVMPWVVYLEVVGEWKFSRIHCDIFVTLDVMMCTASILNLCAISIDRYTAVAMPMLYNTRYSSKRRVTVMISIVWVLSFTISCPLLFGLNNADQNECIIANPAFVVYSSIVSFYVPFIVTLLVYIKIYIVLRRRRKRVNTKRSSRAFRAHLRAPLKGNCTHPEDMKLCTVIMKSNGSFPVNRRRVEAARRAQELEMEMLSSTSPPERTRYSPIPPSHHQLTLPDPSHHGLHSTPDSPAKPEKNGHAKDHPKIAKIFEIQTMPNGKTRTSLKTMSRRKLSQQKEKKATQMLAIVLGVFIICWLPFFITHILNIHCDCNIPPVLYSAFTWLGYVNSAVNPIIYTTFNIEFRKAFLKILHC

[9] = target: D(1B) dopamine receptor (Homo sapiens) (UniProt P21918)
Sequence of D(1B) dopamine receptor (Homo sapiens) (P21918 whole entry): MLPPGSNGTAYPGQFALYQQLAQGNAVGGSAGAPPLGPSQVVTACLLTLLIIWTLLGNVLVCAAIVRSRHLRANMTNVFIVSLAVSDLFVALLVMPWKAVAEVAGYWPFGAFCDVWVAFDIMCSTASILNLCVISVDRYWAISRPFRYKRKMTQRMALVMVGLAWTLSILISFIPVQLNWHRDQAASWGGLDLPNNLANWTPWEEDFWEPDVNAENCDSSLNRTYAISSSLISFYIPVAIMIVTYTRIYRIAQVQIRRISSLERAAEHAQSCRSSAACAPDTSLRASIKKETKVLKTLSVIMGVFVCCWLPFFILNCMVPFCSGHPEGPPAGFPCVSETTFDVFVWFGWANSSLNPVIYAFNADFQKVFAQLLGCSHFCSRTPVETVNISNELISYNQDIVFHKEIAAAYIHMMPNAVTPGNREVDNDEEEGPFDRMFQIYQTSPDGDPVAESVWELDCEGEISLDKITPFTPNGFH

[10] = target: T1, Alpha-1A adrenergic receptor (Homo sapiens) (UniProt P35348)
T1 sequence (whole entry): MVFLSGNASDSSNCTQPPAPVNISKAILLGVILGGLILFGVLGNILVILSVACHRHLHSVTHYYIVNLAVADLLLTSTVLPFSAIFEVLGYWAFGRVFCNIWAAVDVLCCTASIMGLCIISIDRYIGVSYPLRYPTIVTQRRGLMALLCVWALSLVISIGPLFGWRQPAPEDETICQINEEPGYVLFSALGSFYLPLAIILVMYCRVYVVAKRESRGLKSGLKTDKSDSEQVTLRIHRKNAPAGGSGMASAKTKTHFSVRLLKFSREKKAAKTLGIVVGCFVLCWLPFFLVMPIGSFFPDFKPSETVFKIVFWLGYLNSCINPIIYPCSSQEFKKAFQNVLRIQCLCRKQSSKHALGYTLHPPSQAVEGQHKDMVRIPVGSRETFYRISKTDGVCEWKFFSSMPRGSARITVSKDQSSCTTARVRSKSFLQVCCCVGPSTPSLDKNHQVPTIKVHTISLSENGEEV

[11] = target: 5-hydroxytryptamine receptor 2A (Homo sapiens) (UniProt P28223)
[12] = target: 5-hydroxytryptamine receptor 1B (Homo sapiens) (UniProt P28222)
Sequence of 5-hydroxytryptamine receptor 1B (Homo sapiens) (P28222 whole entry): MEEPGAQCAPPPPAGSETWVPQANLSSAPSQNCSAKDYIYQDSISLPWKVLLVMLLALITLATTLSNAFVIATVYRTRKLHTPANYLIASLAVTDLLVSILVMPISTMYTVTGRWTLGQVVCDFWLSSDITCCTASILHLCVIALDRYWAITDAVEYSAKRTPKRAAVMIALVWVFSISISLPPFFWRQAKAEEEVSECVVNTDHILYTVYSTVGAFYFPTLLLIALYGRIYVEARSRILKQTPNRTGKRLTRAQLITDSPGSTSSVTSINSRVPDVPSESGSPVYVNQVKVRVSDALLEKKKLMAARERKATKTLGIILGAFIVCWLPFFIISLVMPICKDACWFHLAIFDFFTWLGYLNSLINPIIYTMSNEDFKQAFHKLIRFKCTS

[13] = target: Sigma non-opioid intracellular receptor 1 (Homo sapiens) (UniProt Q99720)
Sequence of Sigma non-opioid intracellular receptor 1 (Homo sapiens) (Q99720 whole entry): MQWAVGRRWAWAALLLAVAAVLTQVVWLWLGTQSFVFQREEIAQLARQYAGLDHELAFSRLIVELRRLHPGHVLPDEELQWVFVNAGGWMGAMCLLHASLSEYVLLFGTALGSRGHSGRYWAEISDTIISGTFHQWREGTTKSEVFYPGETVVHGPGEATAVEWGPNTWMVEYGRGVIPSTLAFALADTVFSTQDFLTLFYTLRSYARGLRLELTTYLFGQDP

[14] = target: 5-hydroxytryptamine receptor 7 (Homo sapiens) (UniProt P34969)
Sequence of 5-hydroxytryptamine receptor 7 (Homo sapiens) (P34969 whole entry): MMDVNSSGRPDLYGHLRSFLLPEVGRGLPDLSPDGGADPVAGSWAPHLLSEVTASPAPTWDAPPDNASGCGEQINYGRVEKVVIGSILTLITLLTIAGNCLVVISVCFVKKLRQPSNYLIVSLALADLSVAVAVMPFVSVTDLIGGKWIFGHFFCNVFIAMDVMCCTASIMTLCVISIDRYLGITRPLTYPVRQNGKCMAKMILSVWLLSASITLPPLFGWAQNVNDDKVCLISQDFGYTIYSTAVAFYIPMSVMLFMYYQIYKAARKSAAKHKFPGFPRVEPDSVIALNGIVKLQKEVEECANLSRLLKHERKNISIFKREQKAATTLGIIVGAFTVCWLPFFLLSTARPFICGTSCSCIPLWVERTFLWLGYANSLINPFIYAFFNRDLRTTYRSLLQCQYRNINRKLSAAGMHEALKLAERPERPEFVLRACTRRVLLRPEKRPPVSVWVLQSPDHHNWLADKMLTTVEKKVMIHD

[15] = target: Histamine H3 receptor (Homo sapiens) (UniProt Q9Y5N1)
[16] = target: Beta-2 adrenergic receptor (Homo sapiens) (UniProt P07550)
Sequence of Beta-2 adrenergic receptor (Homo sapiens) (P07550 whole entry, looked up): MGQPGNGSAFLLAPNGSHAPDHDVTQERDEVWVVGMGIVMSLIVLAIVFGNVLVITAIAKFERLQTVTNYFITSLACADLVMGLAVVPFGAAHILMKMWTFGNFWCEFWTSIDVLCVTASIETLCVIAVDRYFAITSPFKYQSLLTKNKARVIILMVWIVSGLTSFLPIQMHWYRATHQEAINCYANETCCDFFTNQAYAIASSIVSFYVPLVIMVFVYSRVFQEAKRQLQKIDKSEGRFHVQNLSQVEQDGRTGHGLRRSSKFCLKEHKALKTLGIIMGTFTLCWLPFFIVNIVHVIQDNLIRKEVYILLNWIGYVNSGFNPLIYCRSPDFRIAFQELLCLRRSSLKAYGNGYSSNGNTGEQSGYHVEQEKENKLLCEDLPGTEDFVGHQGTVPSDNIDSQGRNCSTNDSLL

[17] = target: T2, Alpha-2A adrenergic receptor (Homo sapiens) (UniProt P08913)
T2 sequence (whole entry): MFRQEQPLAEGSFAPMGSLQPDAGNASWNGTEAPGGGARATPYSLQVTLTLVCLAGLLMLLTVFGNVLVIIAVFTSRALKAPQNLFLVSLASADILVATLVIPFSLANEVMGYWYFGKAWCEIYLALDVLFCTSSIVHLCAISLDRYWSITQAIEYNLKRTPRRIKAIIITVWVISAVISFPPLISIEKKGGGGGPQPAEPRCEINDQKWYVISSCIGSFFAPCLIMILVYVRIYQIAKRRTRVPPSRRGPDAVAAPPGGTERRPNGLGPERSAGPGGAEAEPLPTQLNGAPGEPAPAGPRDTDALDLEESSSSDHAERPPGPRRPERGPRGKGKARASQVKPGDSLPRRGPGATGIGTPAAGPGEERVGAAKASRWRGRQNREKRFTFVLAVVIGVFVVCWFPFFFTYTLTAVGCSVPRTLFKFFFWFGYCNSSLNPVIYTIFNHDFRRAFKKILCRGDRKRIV

[18] = target: Sigma intracellular receptor 2 (Homo sapiens) (UniProt Q5BJF2)
Sequence of Sigma intracellular receptor 2 (Homo sapiens) (Q5BJF2 whole entry): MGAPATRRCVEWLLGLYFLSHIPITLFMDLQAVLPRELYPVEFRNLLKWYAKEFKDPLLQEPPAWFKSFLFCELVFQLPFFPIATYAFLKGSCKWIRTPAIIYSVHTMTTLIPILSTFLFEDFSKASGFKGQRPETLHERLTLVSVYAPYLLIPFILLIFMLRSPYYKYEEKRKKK

[19] = target: 5-hydroxytryptamine receptor 5A (Homo sapiens) (UniProt P47898)
Sequence of 5-hydroxytryptamine receptor 5A (Homo sapiens) (P47898 whole entry): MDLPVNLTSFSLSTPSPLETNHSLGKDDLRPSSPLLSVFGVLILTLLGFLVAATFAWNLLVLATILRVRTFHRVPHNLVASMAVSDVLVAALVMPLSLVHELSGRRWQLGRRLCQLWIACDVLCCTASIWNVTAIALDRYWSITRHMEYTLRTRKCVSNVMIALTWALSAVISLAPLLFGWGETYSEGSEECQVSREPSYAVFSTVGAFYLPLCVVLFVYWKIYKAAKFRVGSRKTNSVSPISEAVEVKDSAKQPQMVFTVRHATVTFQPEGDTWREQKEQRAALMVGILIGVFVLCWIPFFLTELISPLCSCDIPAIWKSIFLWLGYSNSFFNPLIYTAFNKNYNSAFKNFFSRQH

[20] = target: Histamine H1 receptor (Homo sapiens) (UniProt P35367)

Sequence of 5-hydroxytryptamine receptor 6 (Homo sapiens) (P50406 whole entry): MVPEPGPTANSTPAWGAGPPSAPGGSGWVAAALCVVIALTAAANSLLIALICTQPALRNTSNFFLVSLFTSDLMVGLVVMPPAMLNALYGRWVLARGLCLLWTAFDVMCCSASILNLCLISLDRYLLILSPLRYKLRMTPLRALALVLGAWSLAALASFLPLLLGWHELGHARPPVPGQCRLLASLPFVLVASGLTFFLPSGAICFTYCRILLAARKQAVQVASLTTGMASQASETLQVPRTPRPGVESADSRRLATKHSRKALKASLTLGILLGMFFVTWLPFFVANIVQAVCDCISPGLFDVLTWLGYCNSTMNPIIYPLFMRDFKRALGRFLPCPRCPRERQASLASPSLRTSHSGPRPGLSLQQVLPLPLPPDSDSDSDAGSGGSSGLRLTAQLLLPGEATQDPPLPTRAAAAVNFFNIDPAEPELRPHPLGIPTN
Sequence of Delta-type opioid receptor (Homo sapiens) (P41143 whole entry): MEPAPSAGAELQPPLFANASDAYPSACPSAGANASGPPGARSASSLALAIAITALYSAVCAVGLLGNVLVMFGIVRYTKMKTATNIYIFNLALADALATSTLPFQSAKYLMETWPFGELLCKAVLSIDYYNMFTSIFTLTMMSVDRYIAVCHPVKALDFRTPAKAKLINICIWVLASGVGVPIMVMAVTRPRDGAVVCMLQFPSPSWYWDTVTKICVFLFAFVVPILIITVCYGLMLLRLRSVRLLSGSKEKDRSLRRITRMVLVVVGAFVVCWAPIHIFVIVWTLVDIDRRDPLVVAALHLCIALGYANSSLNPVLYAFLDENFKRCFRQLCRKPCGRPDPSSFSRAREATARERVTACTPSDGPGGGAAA
Sequence of 5-hydroxytryptamine receptor 1E (Homo sapiens) (P28566 whole entry): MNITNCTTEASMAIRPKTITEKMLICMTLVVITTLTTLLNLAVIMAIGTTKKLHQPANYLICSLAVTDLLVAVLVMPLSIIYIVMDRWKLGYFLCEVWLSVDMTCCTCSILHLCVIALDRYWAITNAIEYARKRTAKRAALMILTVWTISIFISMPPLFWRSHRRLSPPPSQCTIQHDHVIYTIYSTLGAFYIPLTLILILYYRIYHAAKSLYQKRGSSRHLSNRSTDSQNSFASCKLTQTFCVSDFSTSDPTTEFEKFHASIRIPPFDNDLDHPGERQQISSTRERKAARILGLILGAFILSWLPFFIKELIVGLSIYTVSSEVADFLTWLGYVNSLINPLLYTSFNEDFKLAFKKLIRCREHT

Row | SMILES | inhibition [1] | inhibition [2] | inhibition [3] | inhibition [4] | inhibition [5] | inhibition [6] | inhibition [7] | inhibition [8] | inhibition [9] | inhibition [10] | inhibition [11] | inhibition [12] | inhibition [13] | inhibition [14] | inhibition [15] | inhibition [16] | inhibition [17] | inhibition [18] | inhibition [19] | inhibition [20]
1 | Cc1cc(C)c(N)c(C#Cc2cccc(F)c2)n1 | -6.32% | -1.56% | 17.1% | 20.1% | 16.2% | 8.38% | 18.3% | 0.33% | 0.26% | 10.2% | 5.87% | 16.6% | 3.28% | 7.78% | -8.58% | 19.8% | 4.3% | 15.9% | -5.73% | 9.77%
2 | CC(C)NCC(O)COc1cccc2[nH]ccc12 (stereo not drawn) |  | -2.56% | 29.3% | 20% | 4.75% | -8.33% | 50.9% | 30.5% | 26.3% | 32% |  | 22% | 38.7% | 37.8% |  | 100% | 29% | 97.5% | 52.6% | 
3 | Cc1c(F)cccc1NC(=O)Nc1ccc(Cl)c(S(=O)(=O)[C@H]2CCCNC2)c1O | 22.8% | -5.71% |  | -6.67% | -2.87% |  | -2.39% | 11.7% | 3.67% | 19.2% | -0.14% | 8.6% | 9.71% | -3.91% |  | 5.61% |  |  | 16.5% | 25.6%
4 | COc1ccccc1N1CCN(CCCCNC(=O)c2ccc3ccccc3c2)CC1 | 3.09% | -2.88% | 73.4% | 27.8% | 37.4% | 8.79% | 103% | 91.8% |  | 98.8% | -1.42% | 93.2% | 90.4% | 102% | 49.6% | 38.9% | 100% | 96.4% | 76.4% | 97%
5 | CC(C)[C@H](CO)Nc1nc(Nc2cccc(Cl)c2)c2ncn(C(C)C)c2n1 | -0.08% | 5.89% | 20.4% |  | 52.3% | 11.2% | 60.1% | 11% | 8.79% | 1.19% | 41.8% | 38.1% | 14.4% | 11.4% |  | -7.15% | 6.44% | 63.1% | 60.9% | -4.77%
6 | CN1CCC(=C2c3ccccc3CC(=O)c3sccc32)CC1 |  | 14.2% | 82.8% | 27.9% | 78.4% | 26.2% | 123% | 100% | 55.2% | 9.71% |  | 63.1% | -1.6% | 90.4% | -7.74% | 25.3% | 80.9% | 91.3% | 43.5% | 
7 | NCCc1c[nH]c2ccc(C(N)=O)cc12 | 3.95% | -3.42% |  | 65.6% | 88.4% | -3.92% | 98.3% | 55.9% |  | -9.81% | -8.47% | 101% | 20.2% | 100% |  | 4.33% | 69.8% | 63.4% | 99.4% | -4.09%
8 | CN1C[C@H](C(=O)N[C@]2(C)O[C@@]3(O)[C@@H]4CCCN4C(=O)[C@H](Cc4ccccc4)N3C2=O)C[C@@H]2c3cccc4[nH]cc(c34)C[C@H]21 |  | 14.2% | 36.3% | 76.1% | 97.4% | 3.01% | 98.8% | 100% | 78.7% | 99.4% |  | 104% | 72.9% | 91.3% | 38.2% | 18.1% | 99.6% | 93.6% | 97.6% | 
9 | CCCCCCCCCCCCC/C=C/[C@@H](O)[C@@H](N)COP(=O)(O)O | 9.29% | 20.4% | 2.88% | 14.4% | 3.57% | 7.9% | 63.5% | 10.6% | 22.7% |  | -3.21% | 8.79% | 63.8% | 16.1% | 6.7% |  | 4.33% | 79.4% | -4.35% | 14.3%
10 | Cc1ccc2c(c1)c1c(n2CCc2ccc(C)nc2)CCN(C)C1 | 18% | 1.39% | 39.2% | 56.9% | 90.6% |  | 70.8% | 57.8% | 32.6% | 88.6% | 84.6% | 74.3% | 71.7% | 90.7% | 16.2% | -9.1% | 69.7% | 32.2% | 94.8% | 95.1%
11 | CN[C@@H]1CCc2[nH]c3ccc(C(N)=O)cc3c2C1 | 15.7% | 2.74% |  | 79.1% | 24.2% | 2.79% | 72.3% | 67.2% | 20.9% | 11.8% | 16.6% | 88.2% | 42.1% | 92% | 11.7% | 22.7% | 31% | 54.9% | 9.03% | 0.33%
12 | Cc1ccccc1N1CCN(S(=O)(=O)C[C@]23CC[C@H](C[C@@H]2NC(=O)[C@@H](N)CCS(C)(=O)=O)C3(C)C)CC1 |  | 7.82% | 7.11% | 19.7% | 0.91% | -3.44% | -2.54% |  | -6.4% | 19.4% | 1.52% | 18.8% | 89.9% | 25.6% | -8.2% | 13.7% | 27.8% | 85% | -3.77% | 0.34%
13 | Cc1nc(-c2ccc(C(F)(F)F)cc2)sc1COc1ccc([C@H](CC(=O)O)c2ccon2)cc1 | 2.18% | 23% |  | 39.7% | 20.3% | -1.65% | 8.11% | 16.7% | -0.99% |  | 48.3% |  | 37.7% | 4.07% | 9.74% | 7.87% |  | 26.5% | 26.8% | 
